Experimental data reported in patent publication US7727553B2, “Oral preparations with favorable disintegration characteristics” (Dainippon Sumitomo Pharma Co., Ltd., priority 2000, dated 2010).

Assay: physchem
Conditions: for solubility at 30 min: 22.5 °C, thermodynamic from solid
Protocol: According to the method disclosed in the Pharmacopoeia of Japan, the solubility (μg/ml) of Compound 1 was measured when treated for 30 minutes under the following conditions. • (1) Conditions for measurement of solubility:
Solvent: Diluted McIlvaine buffer

solubility of Compound 1 (in words): quite low | solubility at 30 min (pH 3, aqueous buffer): > 20 µg/mL | solubility at 30 min (pH 4, aqueous buffer): 8.2 µg/mL | solubility at 30 min (pH 5, aqueous buffer): 0.7 µg/mL
SMILES: Cl.O=C1[C@@H]2[C@H]3CC[C@H](C3)[C@@H]2C(=O)N1C[C@@H]1CCCC[C@H]1CN1CCN(c2nsc3ccccc23)CC1 [Compound 1, N-[4-[4-(1,2-benzisothiazol-3-yl)-1-piperazinyl]-(2R, 3R)-2,3-tetramethylenebutyl]-(1′R, 2′S, 3′R, 4′S)-2,3-bicyclo[2.2.1]heptanedicarboximide hydrochloride]
